Data as given in patent US20120283175A1, “ANTIBACTERIAL COMPOSITIONS” (Achaogen, Inc., priority 2009, published 2012).
Converted amounts (≈) assume the structure as drawn.

Columns and labels:
Format in all cases: cell-based
[1] = tested on: E. coli ATCC25922; assay: MIC by broth microdilution, wild type strain ATCC25922
Procedure: (§1) Bacterial isolates were cultivated from −70° C. frozen stocks of the indicated strains by overnight passages at 35° C. in ambient air on Mueller-Hinton agar (Beckton Dickinson, Franklin Lakes, N.J.). Minimum Inhibitory Concentrations (MICs) were determined by the broth microdilution method in accordance with the Clinical and Laboratory Standards Institute (CLSI) guidelines. In brief, organism suspensions were adjusted to a 0.5 McFarland standard to yield a final inoculum between 3×10^5 and 7×10^5 colony-forming units (CFU)/mL. Drug dilutions and inocula were made in sterile, cation adjusted Mueller-Hinton Broth (Beckton Dickinson). An inoculum volume of 100 μL was added to wells containing 100 μL of broth with 2-fold serial dilutions of drug. All inoculated microdilution trays were incubated in ambient air at 35° C. for 18-24 hours. Following incubation, the lowest concentration of the drug that prevented visible growth (OD600 nm <0.05) was recorded as the MIC.

[2] = tested on: envA+ (D21) E. coli; assay: MIC by broth microdilution, isogenic envA+ strain
Procedure: as §1

[3] = tested on: envA1 (D22) E. coli; assay: MIC by broth microdilution, isogenic envA1 mutant strain
Procedure: as §1

[4] = tested on: Escherichia coli; assay: Checkerboard synergy assay with LpxCi-4; conditions: combination with LpxCi-4
Excerpt: (§2) One classic method for assessing synergy, referred to as the checkerboard assay, is used to predict the efficacy of antibacterial agents, and is described by Scribner et. al., (Antimicrobial Agents and Chemotherapy 21(6):939-943 (1982)) and in Goodman & Gilman (The Pharmacological Basis of Therapeutics, Sixth Edition, pp. 1097-1098 (1980)). The checkerboard assay involves serial two-fold dilutions of the antibiotics individually and in combination in broth, which is then inoculated with the microorganism to be tested. After incubation, the minimum inhibitory concentration (MIC) of each drug used individually and in combination is determined (N.B., the MIC is the lowest concentration of the drug that inhibits growth in the medium). Synergism is indicated by a decrease in the MIC of each drug when used in combination. Antagonism is indicated by an increase in the MIC of either or both drugs when used in combination. Alternate methods of assessing synergy are reviewed in Greco, et al., Pharmacological Reviews 47(2):[…] (1995), incorporated herein by reference in its entirety.
(§3) Partial or full inhibition of LpxC should compromise the outer membrane and thus allow these synergizing agents to enter the cells and exert an antibacterial effect at concentrations where cells untreated with an LpxC inhibitor are unaffected. As a first step, checkerboard synergy assays for a variety of antibacterial agents were perform with several LpxC inhibitors, on several species of gram negative bacteria.
as §1
(§4) Standard checkerboard assays were performed with a combination of the indicated agents and LpxCi-4. Table 2 provides the FICI calculated according to standard techniques.

[5] = tested on: Klebsiella pneumoniae; assay: Checkerboard synergy assay with LpxCi-4; conditions: combination with LpxCi-4
Excerpt: as §2, §3, §1, §4

[6] = tested on: Pseudomonas aeruginosa; assay: Checkerboard synergy assay with LpxCi-4; conditions: combination with LpxCi-4 (3936); Pseudomonas aeruginosa (ATCC27853 in text)
Excerpt: as §2, §3, §1, §4

[7] = tested on: Yersinia enterocolitica; assay: Checkerboard synergy assay with LpxCi-4; conditions: combination with LpxCi-4
Excerpt: as §2, §3, §1, §4

Compound | MIC [1] [µg/mL] | MIC [2] [µg/mL] | MIC ([3]; Strain envA1 (D21)) [µg/mL] | Fold decrease in MIC (envA+/envA1) ([3]; envA+ vs envA1 E. coli) | FICI index [4] | FICI index [5] | FICI index [6] | FICI index [7]
CCCCCCCCCCNCCN[C@@]1(C)C[C@H](O[C@H]2[C@H](Oc3c4cc5cc3Oc3ccc(cc3Cl)[C@@H](O)[C@@H](NC(=O)[C@@H](CC(C)C)NC)C(=O)N[C@@H](CC(N)=O)C(=O)N[C@H]5C(=O)N[C@H]3C(=O)N[C@H](C(=O)N[C@H](C(=O)O)c5cc(O)c(CNCP(=O)(O)O)c(O)c5-c5cc3ccc5O)[C@H](O)c3ccc(c(Cl)c3)O4)O[C@H](CO)[C@@H](O)[C@@H]2O)O[C@@H](C)[C@H]1O [Telavancin, telavancin] | > 128 | > 128 | 16 (≈ 9.11 µM) | ≧8 | no | ≦0.31 | no effect | ≦0.5
CO[C@@H]1[C@@H](OC(N)=O)[C@@H](O)[C@H](Oc2ccc3c(O)c(NC(=O)c4ccc(O)c(CC=C(C)C)c4)c(=O)oc3c2C)OC1(C)C [Novobiocin, novobiocin] |  |  |  |  | ≦0.25 | ≦0.38 | no effect | ≦0.63
